From patent publication US12617758B2, “Quinazoline derivative having FLT3 inhibitory activity, and use thereof” (INDUSTRY-UNIVERSITY COOPERATION FOUNDATION HANYANG …, priority 2020, dated 2026)
Like-named read-outs stand apart in the source and are kept apart here.

How the values were obtained:
Type in all cases: biochemical
[1] = target: P38a/MAPK14 (Homo sapiens, UniProt Q16539); experiment: Kinase panel screening; settings: single dose of 10 μM, read-out: % inhibition rate
[2] = target: T1, FLT (ITD) (Homo sapiens, UniProt P36888); experiment: FLT (ITD) enzyme activity (IC50)
T1 sequence (P36888 1-993): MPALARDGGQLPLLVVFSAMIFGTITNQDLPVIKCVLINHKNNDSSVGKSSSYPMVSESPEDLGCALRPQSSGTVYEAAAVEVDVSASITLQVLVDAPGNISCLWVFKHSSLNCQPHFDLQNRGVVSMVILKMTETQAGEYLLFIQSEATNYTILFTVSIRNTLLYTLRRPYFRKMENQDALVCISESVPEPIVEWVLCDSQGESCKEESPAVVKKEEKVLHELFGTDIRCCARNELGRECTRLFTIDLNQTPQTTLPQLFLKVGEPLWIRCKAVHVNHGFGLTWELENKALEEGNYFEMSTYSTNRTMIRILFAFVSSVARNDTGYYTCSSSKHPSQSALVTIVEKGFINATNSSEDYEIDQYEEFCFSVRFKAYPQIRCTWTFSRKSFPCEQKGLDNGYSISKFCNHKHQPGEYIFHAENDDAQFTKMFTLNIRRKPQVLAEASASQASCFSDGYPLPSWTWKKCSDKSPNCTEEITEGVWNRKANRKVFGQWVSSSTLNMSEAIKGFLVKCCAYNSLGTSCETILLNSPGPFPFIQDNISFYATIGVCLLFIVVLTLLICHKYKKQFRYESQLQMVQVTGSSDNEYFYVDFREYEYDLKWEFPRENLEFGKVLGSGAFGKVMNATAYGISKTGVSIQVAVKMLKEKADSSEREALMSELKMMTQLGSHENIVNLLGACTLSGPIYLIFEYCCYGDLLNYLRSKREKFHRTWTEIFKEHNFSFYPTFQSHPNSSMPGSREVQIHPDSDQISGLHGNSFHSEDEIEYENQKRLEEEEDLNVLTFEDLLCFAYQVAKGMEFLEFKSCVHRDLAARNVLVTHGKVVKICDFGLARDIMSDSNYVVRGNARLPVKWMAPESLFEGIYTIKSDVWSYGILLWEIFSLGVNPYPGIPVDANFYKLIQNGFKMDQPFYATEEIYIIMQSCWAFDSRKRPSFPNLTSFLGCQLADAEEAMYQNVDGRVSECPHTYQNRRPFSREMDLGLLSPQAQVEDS
Text: Experimental Example 1. Measurement of FLT3 and FLT Enzyme Activity
Changes in FLT3 and FLT enzyme activities by treatment with the quinazoline derivatives of the following Table 1 according to the present invention were confirmed by IC50.

[3] = target: BTK (Homo sapiens, UniProt Q06187); experiment: Kinase panel screening; settings: single dose of 10 μM, read-out: % inhibition rate
[4] = target: FLT3 (D835Y) (Homo sapiens, UniProt P36888, D835Y); experiment: Inhibitory activity against FLT3 mutants
Text: (§1) Subsequently, the inhibitory activity of Compound 7d against other different FLT3 mutants was additionally investigated and is shown in Table 2. […] Further, Compound 7d was also strong against FLT3 mutations located in the TKD.

[5] = target: FLT3 (Y591_V592 ins VDFREYEYD) (Homo sapiens, UniProt P36888, INS591VDFREYEYD); experiment: Inhibitory activity against FLT3 mutants; settings: insertion of 9 amino acids
Text: as §1

[6] = target: FMS (Homo sapiens, UniProt P07333); experiment: Kinase panel screening; settings: single dose of 10 μM, read-out: % inhibition rate
[7] = target: RON/MST1R (Homo sapiens, UniProt Q04912); experiment: Kinase panel screening; settings: single dose of 10 μM, read-out: % inhibition rate
[8] = target: T2, FLT3 (Homo sapiens, UniProt P36888); experiment: Kinase panel screening; settings: single dose of 10 μM
T2 sequence (P36888 27-993): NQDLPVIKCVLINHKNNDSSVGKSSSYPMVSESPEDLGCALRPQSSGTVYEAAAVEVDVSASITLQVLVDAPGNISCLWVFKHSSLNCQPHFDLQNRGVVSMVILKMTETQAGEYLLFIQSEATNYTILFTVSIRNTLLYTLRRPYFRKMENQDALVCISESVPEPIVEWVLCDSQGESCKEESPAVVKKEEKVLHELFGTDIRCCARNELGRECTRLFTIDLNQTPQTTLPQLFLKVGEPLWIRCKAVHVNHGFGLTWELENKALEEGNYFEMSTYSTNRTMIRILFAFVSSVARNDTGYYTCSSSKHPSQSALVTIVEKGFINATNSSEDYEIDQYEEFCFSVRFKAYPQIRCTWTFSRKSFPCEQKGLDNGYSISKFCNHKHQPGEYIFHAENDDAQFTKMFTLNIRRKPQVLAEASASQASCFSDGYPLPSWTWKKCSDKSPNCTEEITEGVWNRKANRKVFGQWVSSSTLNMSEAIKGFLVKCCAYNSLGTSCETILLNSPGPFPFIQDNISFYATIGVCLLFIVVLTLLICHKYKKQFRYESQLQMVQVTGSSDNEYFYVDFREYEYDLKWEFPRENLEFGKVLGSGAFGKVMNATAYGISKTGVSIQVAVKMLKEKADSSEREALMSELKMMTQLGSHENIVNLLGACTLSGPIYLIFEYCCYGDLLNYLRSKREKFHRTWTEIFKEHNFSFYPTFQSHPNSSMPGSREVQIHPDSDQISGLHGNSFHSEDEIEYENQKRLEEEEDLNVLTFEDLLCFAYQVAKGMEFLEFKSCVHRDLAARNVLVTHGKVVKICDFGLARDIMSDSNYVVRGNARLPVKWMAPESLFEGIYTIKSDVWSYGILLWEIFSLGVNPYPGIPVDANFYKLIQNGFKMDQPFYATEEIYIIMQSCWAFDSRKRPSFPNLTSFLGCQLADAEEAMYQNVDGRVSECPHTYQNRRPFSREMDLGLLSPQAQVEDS

[9] = target: LCK (Homo sapiens, UniProt P06239); experiment: Kinase panel screening; settings: single dose of 10 μM, read-out: % inhibition rate
[10] = target: LYN (Homo sapiens, UniProt P07948); experiment: Kinase panel screening; settings: single dose of 10 μM, read-out: % inhibition rate
[11] = target: ABL1 (Homo sapiens, UniProt P00519); experiment: Kinase panel screening; settings: single dose of 10 μM, read-out: % inhibition rate
[12] = target: c-Kit (Homo sapiens, UniProt P10721); experiment: Kinase panel screening; settings: single dose of 10 μM
[13] = target: AKT1 (Homo sapiens, UniProt P31749); experiment: Kinase panel screening; settings: single dose of 10 μM, read-out: % inhibition rate
Sequence of AKT1 (P31749 whole entry, species assumed): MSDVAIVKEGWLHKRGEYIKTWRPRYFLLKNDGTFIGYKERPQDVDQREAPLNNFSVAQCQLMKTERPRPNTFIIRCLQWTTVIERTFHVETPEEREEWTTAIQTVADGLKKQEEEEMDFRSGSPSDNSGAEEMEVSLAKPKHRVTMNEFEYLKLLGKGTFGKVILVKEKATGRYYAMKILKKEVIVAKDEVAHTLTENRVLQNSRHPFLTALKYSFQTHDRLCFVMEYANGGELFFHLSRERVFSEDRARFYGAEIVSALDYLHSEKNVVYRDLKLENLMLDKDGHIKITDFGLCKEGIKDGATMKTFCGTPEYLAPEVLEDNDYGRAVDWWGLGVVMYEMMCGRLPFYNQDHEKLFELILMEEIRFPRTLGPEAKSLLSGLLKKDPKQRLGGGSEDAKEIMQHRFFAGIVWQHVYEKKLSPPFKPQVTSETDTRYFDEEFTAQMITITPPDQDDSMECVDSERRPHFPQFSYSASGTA

Sequence of c-Kit (P10721 26-976): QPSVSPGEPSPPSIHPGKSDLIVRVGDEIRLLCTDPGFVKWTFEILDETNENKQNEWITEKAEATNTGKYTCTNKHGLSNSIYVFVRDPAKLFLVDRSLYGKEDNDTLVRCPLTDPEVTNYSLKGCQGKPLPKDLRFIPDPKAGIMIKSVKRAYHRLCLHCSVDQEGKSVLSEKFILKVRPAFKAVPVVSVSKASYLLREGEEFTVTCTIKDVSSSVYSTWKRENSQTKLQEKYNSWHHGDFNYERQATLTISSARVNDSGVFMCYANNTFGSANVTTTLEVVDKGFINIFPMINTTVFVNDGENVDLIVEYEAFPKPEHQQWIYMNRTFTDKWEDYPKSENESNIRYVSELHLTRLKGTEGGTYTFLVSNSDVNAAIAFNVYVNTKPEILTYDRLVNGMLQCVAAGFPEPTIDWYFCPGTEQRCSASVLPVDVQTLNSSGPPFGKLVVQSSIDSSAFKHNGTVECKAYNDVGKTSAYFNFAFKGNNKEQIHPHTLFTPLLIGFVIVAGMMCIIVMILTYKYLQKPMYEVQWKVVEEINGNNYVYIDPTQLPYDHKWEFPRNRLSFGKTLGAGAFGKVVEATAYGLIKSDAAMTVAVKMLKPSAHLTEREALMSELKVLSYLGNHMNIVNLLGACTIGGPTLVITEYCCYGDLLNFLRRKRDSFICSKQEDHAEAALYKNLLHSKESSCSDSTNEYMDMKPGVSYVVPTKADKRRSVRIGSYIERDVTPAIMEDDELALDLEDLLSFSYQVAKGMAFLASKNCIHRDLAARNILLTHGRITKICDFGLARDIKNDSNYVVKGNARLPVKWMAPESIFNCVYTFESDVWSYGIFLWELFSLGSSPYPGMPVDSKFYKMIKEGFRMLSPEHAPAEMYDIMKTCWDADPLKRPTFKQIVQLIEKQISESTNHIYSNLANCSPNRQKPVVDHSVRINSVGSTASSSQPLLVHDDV
Sequence of P38a/MAPK14 (Q16539 whole entry): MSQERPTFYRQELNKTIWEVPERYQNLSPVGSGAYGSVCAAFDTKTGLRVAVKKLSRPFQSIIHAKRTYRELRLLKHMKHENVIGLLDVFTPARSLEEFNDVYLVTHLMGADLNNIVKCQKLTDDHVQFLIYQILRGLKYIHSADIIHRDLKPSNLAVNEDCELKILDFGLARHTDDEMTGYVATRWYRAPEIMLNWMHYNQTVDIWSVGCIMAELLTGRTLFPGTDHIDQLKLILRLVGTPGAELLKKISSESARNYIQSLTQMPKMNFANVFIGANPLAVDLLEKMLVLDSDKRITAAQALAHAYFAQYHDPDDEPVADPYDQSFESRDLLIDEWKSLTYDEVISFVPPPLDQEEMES
Sequence of FMS (P07333 20-972, species assumed): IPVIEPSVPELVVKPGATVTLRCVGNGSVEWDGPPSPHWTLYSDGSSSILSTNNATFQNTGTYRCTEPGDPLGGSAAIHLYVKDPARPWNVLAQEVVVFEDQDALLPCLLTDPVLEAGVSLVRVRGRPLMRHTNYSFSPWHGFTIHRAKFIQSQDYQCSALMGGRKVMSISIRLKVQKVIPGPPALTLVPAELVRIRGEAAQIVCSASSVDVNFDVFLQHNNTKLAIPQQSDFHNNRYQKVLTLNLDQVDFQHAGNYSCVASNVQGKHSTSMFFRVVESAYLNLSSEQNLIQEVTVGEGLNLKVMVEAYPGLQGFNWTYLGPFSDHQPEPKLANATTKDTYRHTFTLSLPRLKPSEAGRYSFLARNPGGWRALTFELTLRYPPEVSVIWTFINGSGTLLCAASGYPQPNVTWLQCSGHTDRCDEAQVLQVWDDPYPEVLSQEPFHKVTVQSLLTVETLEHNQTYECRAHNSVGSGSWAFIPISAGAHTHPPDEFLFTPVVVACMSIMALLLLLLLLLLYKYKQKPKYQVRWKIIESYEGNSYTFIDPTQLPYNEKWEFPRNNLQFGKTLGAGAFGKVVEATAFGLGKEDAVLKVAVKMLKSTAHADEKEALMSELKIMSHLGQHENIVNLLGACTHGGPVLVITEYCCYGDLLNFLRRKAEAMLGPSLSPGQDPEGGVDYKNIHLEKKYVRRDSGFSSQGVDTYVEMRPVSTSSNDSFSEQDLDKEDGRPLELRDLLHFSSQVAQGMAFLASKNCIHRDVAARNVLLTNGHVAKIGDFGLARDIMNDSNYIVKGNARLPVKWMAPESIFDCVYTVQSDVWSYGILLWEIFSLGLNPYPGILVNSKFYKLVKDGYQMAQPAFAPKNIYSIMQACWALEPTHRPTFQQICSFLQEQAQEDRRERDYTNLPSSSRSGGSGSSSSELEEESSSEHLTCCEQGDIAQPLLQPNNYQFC
Sequence of BTK (Q06187 whole entry, species assumed): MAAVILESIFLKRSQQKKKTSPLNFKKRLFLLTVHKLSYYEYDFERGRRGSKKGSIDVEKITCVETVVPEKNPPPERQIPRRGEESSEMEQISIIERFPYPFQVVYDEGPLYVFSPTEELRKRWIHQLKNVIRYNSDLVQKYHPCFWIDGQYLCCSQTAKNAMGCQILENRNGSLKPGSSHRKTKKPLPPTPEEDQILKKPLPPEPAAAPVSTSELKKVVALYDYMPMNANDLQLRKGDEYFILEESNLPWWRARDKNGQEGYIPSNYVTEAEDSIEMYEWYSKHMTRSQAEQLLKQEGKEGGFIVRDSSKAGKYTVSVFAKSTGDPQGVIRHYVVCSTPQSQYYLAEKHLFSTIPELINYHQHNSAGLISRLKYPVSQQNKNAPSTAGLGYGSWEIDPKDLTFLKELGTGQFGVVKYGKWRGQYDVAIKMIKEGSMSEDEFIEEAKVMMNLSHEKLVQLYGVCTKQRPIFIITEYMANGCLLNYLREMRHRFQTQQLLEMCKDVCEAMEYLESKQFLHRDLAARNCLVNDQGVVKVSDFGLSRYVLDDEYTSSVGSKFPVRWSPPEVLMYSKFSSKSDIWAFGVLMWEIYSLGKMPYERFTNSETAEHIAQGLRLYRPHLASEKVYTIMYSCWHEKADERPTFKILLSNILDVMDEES
Sequence of ABL1 (P00519 whole entry, species assumed): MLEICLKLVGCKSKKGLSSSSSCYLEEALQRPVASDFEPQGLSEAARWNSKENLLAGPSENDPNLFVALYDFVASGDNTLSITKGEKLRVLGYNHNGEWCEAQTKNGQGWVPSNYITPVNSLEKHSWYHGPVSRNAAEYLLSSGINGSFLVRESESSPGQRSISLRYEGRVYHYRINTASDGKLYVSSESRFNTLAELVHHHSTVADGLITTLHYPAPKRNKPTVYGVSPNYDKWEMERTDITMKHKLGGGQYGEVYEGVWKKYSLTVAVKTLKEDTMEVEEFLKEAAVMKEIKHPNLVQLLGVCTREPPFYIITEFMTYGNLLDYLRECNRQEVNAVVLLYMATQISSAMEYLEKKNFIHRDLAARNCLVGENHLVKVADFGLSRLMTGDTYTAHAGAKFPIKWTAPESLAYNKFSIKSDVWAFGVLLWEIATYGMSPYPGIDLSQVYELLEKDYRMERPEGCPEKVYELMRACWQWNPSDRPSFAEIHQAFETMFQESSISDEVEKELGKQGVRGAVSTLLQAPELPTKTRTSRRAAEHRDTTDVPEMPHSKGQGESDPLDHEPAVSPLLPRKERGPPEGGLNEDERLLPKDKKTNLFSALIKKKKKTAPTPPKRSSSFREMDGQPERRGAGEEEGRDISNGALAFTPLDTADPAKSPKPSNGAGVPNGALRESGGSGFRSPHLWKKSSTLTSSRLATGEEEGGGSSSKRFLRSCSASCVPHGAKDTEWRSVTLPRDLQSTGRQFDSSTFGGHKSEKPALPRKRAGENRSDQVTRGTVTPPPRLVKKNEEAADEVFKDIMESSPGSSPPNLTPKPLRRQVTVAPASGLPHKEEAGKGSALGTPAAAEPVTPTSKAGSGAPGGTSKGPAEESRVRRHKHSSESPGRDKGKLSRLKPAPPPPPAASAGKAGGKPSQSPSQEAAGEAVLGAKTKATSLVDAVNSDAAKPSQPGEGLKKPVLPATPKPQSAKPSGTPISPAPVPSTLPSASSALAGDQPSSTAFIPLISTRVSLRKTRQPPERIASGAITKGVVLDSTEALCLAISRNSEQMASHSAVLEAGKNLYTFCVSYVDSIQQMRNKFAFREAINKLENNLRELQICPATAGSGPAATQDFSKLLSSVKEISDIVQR
Sequence of LYN (P07948 whole entry, species assumed): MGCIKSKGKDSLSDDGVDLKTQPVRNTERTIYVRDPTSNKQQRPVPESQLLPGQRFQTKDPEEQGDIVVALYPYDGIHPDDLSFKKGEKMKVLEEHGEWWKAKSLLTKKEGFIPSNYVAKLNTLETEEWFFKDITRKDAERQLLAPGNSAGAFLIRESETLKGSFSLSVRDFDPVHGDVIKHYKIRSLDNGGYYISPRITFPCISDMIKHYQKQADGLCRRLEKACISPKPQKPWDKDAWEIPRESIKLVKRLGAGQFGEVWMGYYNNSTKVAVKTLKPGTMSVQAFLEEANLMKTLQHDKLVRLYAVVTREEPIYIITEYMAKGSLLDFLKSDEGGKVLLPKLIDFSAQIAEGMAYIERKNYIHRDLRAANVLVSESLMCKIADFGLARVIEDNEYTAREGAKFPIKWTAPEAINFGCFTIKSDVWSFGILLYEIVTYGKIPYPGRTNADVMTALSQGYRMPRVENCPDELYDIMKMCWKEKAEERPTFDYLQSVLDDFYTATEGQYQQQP

Cc1oncc1C(=O)Nc1ccc2cnc(-c3cc(N4CCN(C)CC4)cc(C(F)(F)F)c3)nc2c1 [Compound 7d, 5-methyl-N-(2-(3-(4-methylpiperazin-1-yl)-5-(trifluoromethyl)phenyl)quinazolin-7-yl)isoxazole-4-carboxamide]
inhibition at 10 µM [1]: 0%
IC50 ([2]; read-out: FLT (ITD) IC50): < 3000 nM
IC50 ([2]; read-out: IC50 against FLT-ITD): 301 nM
inhibition at 10 µM [3]: 17.5%
IC50 [4]: 228 nM
IC50 [5]: 728 nM
inhibition at 10 µM [6]: 5.49%
inhibition at 10 µM [7]: 13.5%
% inhibition rate [8]: 96.6%
inhibition at 10 µM [9]: 19.7%
inhibition at 10 µM [10]: 20.5%
inhibition at 10 µM [11]: 6.46%
% inhibition rate [12]: did not exhibit inhibitory activity
inhibition at 10 µM ([12]; read-out: % inhibition rate): 0%
inhibition at 10 µM [13]: 5.48%
